The values below are quoted from earlier work in patent publication US8491930B2, “Pharmaceutical formulation containing ibuprofen and codeine” (Farmasierra Manufacturing, S.L., priority 2008, dated 2013).

For the compound `COc1ccc2c3c1OC1C(O)C=C[C@H]4[C@@H](C2)N(C)CC[C@]314` (stereo partly shown) [Codeine phosphate, 7,8-didehydro-4,5-epoxy-3-methoxy-17-methyl-morphinan-6-ol], the Solubility in water entry is “soluble in water”.
